# Measured values as given in patent US11541028B2, “Peptide pharmaceuticals for treatment of NASH and other disorders” (Mederis Diabetes LLC, priority 2018, dated 2023).
# pEC50: −log10 of the molar value. Square brackets hold non-standard residues; d marks the D form. Peptide text beside a SMILES is read from it. * marks the point of attachment. GlcA(β-D,1-O-dodecyl) = CCCCCCCCCCCCO[C@@H]1O[C@H](C(=O)*)[C@@H](O)[C@H](O)[C@H]1O; Ac4c = NC1(C(=O)O)CCC1; Aib = CC(C)(N)C(=O)O
# Experiments:
# GLP-1 R = biological target: T1, GLP-1 R (Mus musculus, UniProt O35659); test: Cerep cellular assay, stimulation of cAMP levels, GLP-1 (murine cell line); assay type: cell-based; design: key: §means superagonist; n.c. means EC50 not calculable; details: n.c. = EC50 not calculable
# T1 construct: GLP-1 (murine cell line) cellular assays
# T1 sequence (O35659 22-463): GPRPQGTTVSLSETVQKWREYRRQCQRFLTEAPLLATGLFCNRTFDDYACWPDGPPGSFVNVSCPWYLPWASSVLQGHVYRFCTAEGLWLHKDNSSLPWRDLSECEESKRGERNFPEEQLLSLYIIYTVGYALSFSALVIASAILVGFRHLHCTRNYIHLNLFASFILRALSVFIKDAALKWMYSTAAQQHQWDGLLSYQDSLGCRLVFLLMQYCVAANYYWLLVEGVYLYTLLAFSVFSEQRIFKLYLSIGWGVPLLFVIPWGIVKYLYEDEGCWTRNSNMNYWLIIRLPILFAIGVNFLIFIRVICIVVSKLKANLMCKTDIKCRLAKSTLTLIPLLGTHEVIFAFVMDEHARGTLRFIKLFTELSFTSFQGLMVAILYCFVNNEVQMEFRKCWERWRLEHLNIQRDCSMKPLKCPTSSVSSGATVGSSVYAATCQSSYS
# Description: Compounds were weighed precisely in an amount of about 1 mg and assayed in standard cellular assays (Cerep SA). The readout was the amount of cAMP generated in the cells treated with the test compounds, in either agonist or antagonist mode. […] The assays are described in Chicchi et al., J. Biol. Chem., 272:7765-7769 (1997) and Runge et al., Br. J. Pharmacol., 138:787-794 (2003).
# DIO C57BL/6J mice = test: Activity in diet-induced obese (DIO) mice; assay type: in vivo
# Description: Fifty diet-induced obese (DIO) C57BL/6J male mice (JAX Labs) were received at 6 wks of age. The mice were ear notched for identification and housed individually in positively ventilated polycarbonate cages with HEPA-filtered air at a density of […]. The animal room was lit entirely with artificial fluorescent lighting, with a controlled 12 hr light/dark cycle. The normal temperature and relative humidity ranges in the animal rooms were 22±4° C. and 50±15%, respectively. Filtered tap water, acidified to a pH of 2.8-3.1, and a high-fat diet (Research Diets D12492, 60 kcal %) were provided ad libitum.
# Following a 2 week acclimation, the 50 mice were randomized into groups (n=10): Group 1: treated with vehicle; Group 2: low-dose EU-A994; Group 3: high-dose […]; Group 4: low-dose EU-A1024; and Group 5: high-dose EU-A1024. Mice were dosed subcutaneously on days 1 (at 0 and 7 hr), 3, 6, 9, 12, 15, 18, 21 and 24. Body weight and cage-side observations were recorded daily. Food and water intake was recorded weekly. Mice underwent NMR measurements for determination of whole-body fat and lean composition on days 1 (pre-dose) and 26. On day 26, mice were fasted overnight for an oral glucose tolerance test. Next day, the first blood sample was collected via tail nick (t=0). Mice were then administered a bolus of 1.0 g/kg glucose. Blood samples were obtained via tail nick at 0, 15, 30, 60, 90 and 120 min after glucose dosing, and plasma glucose was immediately determined using a glucometer.
# Mice were sacrificed on day 28. Terminal blood was processed to serum/plasma, and aliquots were sent for analysis of glucose, insulin and lipid profile. Body composition was determined by NMR.
# human glucagon receptor = biological target: T2, human glucagon receptor (Homo sapiens, UniProt P47871); test: DiscoveRx LeadHunter cellular assay, cAMP stimulation, glucagon receptor in CHO cells; assay type: cell-based
# T2 construct: host or cells: CHO cells
# T2 sequence (P47871 26-477): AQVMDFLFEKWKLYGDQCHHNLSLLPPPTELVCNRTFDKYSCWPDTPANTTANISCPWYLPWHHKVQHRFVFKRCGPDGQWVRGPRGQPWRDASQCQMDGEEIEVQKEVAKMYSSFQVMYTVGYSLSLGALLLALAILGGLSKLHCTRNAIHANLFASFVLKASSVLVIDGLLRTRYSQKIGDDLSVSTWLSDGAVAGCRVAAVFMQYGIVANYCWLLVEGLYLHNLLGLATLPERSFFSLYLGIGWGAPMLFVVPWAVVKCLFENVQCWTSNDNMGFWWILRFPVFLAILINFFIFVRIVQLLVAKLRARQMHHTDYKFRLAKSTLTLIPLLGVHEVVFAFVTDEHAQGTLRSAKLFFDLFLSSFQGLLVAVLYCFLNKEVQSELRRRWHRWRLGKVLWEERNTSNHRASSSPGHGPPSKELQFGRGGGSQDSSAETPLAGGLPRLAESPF
# Description: (§1) A further series of cellular assays was carried out with standard cellular assays (DiscoveRx, LeadHunter assays) using readout of cAMP stimulation or arrestin activation. Compounds were weighed precisely in an amount of about 1 mg and shipped to DiscoveRx for dilution and assay.
# human GLP-1 receptor = biological target: T3, human GLP-1 receptor (Homo sapiens, UniProt P43220); test: DiscoveRx LeadHunter cellular assay, cAMP stimulation, GLP-1 receptor in CHO cells; assay type: cell-based; details: human GLP-1 receptor in CHO cells (DiscoveRx); read-out: EC50 cAMP GLP-1 R
# T3 construct: host or cells: CHO cells
# T3 sequence (P43220 24-463): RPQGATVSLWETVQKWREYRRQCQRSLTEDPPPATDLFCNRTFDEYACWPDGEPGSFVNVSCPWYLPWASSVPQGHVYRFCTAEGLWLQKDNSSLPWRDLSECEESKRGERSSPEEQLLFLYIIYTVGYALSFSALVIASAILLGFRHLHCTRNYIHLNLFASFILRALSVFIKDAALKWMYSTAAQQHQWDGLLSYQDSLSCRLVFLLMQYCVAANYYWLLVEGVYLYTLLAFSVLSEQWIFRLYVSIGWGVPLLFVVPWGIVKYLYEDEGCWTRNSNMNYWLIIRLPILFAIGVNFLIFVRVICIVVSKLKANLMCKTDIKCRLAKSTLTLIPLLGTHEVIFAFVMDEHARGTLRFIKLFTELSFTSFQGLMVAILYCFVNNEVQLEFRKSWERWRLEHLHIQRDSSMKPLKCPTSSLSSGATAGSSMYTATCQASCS
# Description: as §1
# [1] = days 1 (pre-dose) and 26 (FIG. 11)
# [2] = sc on days 1 (0 and 7 hr), 3, 6, 9, 12, 15, 18, 21 and 24
compound,measurement,setting,value
"CCCCCCCCCCCCO[C@@H]1O[C@H](C(=O)NCCCC[C@H](NC(=O)[C@H](CC(=O)O)NC(=O)[C@H](CC(C)C)NC(=O)[C@H](Cc2ccc(O)cc2)NC(=O)[C@H](CCCCN)NC(=O)[C@H](CO)NC(=O)[C@H](Cc2ccc(O)cc2)NC(=O)[C@H](CC(=O)O)NC(=O)[C@H](CO)NC(=O)[C@@H](NC(=O)[C@H](Cc2ccccc2)NC(=O)[C@@H](NC(=O)CNC(=O)[C@H](CCC(N)=O)NC(=O)C(C)(C)NC(=O)[C@@H](N)Cc2c[nH]cn2)[C@@H](C)O)[C@@H](C)O)C(=O)NC2(C(N)=O)CCC2)[C@@H](O)[C@H](O)[C@H]1O [EU-A522] (H-H[Aib]QGTFTSDYSKYLDK(GlcA(β-D,1-O-dodecyl))[Ac4c]-NH2; N-terminus assumed)",EC50 GLP-1 R (nM),GLP-1 R,n.c.
CCCCCCCCCCCCO[C@@H]1O[C@H](C(=O)NCCCC[C@H](NC(=O)[C@H](CO)NC(=O)[C@H](CC(=O)O)NC(=O)[C@H](CC(C)C)NC(=O)[C@H](Cc2ccc(O)cc2)NC(=O)[C@H](CCCCN)NC(=O)[C@H](CO)NC(=O)[C@H](Cc2ccc(O)cc2)NC(=O)[C@H](CC(=O)O)NC(=O)[C@H](CO)NC(=O)[C@@H](NC(=O)[C@H](Cc2ccccc2)NC(=O)[C@@H](NC(=O)CNC(=O)[C@H](CCC(N)=O)NC(=O)C(C)(C)NC(=O)[C@@H](N)Cc2c[nH]cn2)[C@@H](C)O)[C@@H](C)O)C(=O)NC(C)(C)C(N)=O)[C@@H](O)[C@H](O)[C@H]1O [EU-A527],EC50 GLP-1 R (nM),GLP-1 R,n.c.
CCCCCCCCCCCCO[C@@H]1O[C@H](C(=O)NCCCC[C@H](NC(=O)[C@H](CO)NC(=O)[C@H](CC(=O)O)NC(=O)[C@H](CC(C)C)NC(=O)[C@H](Cc2ccc(O)cc2)NC(=O)[C@H](CCCCN)NC(=O)[C@H](CO)NC(=O)[C@H](Cc2ccc(O)cc2)NC(=O)[C@H](CC(=O)O)NC(=O)[C@H](CO)NC(=O)[C@@H](NC(=O)[C@H](Cc2ccccc2)NC(=O)[C@@H](NC(=O)CNC(=O)[C@H](CCC(N)=O)NC(=O)C(C)(C)NC(=O)[C@@H](N)Cc2c[nH]cn2)[C@@H](C)O)[C@@H](C)O)C(=O)N[C@@H](CCCNC(=N)N)C(=O)NC(C)(C)C(N)=O)[C@@H](O)[C@H](O)[C@H]1O [EU-A529],EC50 GLP-1 R (nM),GLP-1 R,n.c.
CCCCCCCCCCCCCCO[C@@H]1O[C@H](CO[C@H]2O[C@H](C(=O)NCCCC[C@H](NC(=O)[C@@H](NC(=O)[C@H](Cc3ccccc3)NC(=O)[C@H](CCC(=O)O)NC(=O)[C@@H]3CCCCNC(=O)CC[C@H](NC(=O)[C@H](CC(=O)O)NC(=O)[C@H](CC(C)C)NC(=O)[C@H](Cc4ccc(O)cc4)NC(=O)[C@H](CCCCN)NC(=O)[C@H](CO)NC(=O)[C@H](Cc4ccc(O)cc4)NC(=O)[C@H](CC(=O)O)NC(=O)[C@H](CO)NC(=O)[C@@H](NC(=O)[C@H](Cc4ccccc4)NC(=O)[C@@H](NC(=O)CNC(=O)[C@H](CCC(N)=O)NC(=O)C(C)(C)NC(=O)[C@@H](N)Cc4c[nH]cn4)[C@@H](C)O)[C@@H](C)O)C(=O)N[C@@H](CCC(N)=O)C(=O)N[C@@H](C)C(=O)N[C@@H](C)C(=O)N3)[C@@H](C)CC)C(=O)N[C@@H](Cc3c[nH]c4ccccc34)C(=O)N[C@@H](CC(C)C)C(=O)N[C@@H](CC(C)C)C(=O)N[C@@H](CCC(N)=O)C(=O)N[C@H](C(N)=O)[C@@H](C)O)[C@H](O)[C@H](O)[C@H]2O)[C@@H](O)[C@H](O)[C@H]1O [EU-A1024],fat mass (NMR),DIO C57BL/6J mice; [1],reduced fat mass
same,lean mass (NMR),DIO C57BL/6J mice; [1],little effect on lean mass
same,basal insulin secretion,DIO C57BL/6J mice; [2],reduced basal insulin secretion
same,glucose excursion in the oral glucose tolerance test (OGTT),DIO C57BL/6J mice; [2],reduced glucose excursion
same,glucose-dependent insulin secretion,DIO C57BL/6J mice; [2],increased glucose-dependent insulin secretion
same,weight gain,"DIO C57BL/6J mice; sc on days 1 (0 and 7 hr), 3, 6, 9, 12, 15, 18, 21 and 24 (FIG. 10)",reduced weight gain
same,pEC50,human glucagon receptor,10.46
same,pEC50,human GLP-1 receptor,11.30
